What was measured:
OVCAR-3 = experiment: NCI-60 screen (SRB); format: cell-based, human; settings: OVCAR-3 (Ovarian)
Protocol: (§1) The human tumor cell lines of the cancer screening panel are grown in RPMI 1640 medium containing 5% fetal bovine serum and 2 mM L-glutamine. For a typical screening experiment, cells are inoculated into 96 well microtiter plates in 100 μL at plating densities ranging from 5,000 to 40,000 cells/well depending on the doubling time of individual cell lines. After cell inoculation, the microtiter plates are incubated at 37° C., 5% CO2, 95% air and 100% relative humidity for 24 h prior to addition of experimental drugs.
(§2) After 24 h, two plates of each cell line are fixed in situ with TCA, to represent a measurement of the cell population for each cell line at the time of drug addition (Tz). Experimental drug is solubilized in dimethyl sulfoxide at 400-fold the desired final maximum test concentration and stored frozen prior to use. At the time of drug addition, an aliquot of frozen concentrate is thawed and diluted to twice the desired final maximum test concentration with complete medium containing 50 μg/ml gentamicin. Additional four, 10-fold or ½ log serial dilutions are made to provide a total of five drug concentrations plus control. Aliquots of 100 μl of these different drug dilutions are added to the appropriate microtiter wells already containing 100 μl of medium, resulting in the required final drug concentrations.
(§3) Following drug addition, the plates are incubated for an additional 48 h at 37° C., 5% CO2, 95% air, and 100% relative humidity. For adherent cells, the assay is terminated by the addition of cold TCA. Cells are fixed in situ by the gentle addition of 50 μl of cold 50% (w/v) TCA (final concentration, 10% TCA) and incubated for 60 minutes at 4° C. The supernatant is discarded, and the plates are washed five times with tap water and air dried. Sulforhodamine B (SRB) solution (100 μl) at 0.4% (w/v) in 1% acetic acid is added to each well, and plates are incubated for 10 minutes at room temperature. After staining, unbound dye is removed by washing five times with 1% acetic acid and the plates are air dried. Bound stain is subsequently solubilized with 10 mM trizma base, and the absorbance is read on an automated plate reader at a wavelength of 515 nm. For suspension cells, the methodology is the same except that the assay is terminated by fixing settled cells at the bottom of the wells by gently adding 50 μl of 80% TCA (final concentration, 16% TCA). Using the seven absorbance measurements [time zero, (Tz), control growth, (C), and test growth in the presence of drug at the five concentration levels (Ti)], the percentage growth is calculated at each of the drug concentrations levels.
(§4) Percentage growth inhibition is calculated as: [(Ti−Tz)/(C−Tz)]×100 for concentrations for which Ti>/=Tz (1) [(Ti−Tz)/Tz]×100 for concentrations for which Ti<Tz (2)
(§5) Growth inhibition of 50% (GI50) is calculated from [(Ti−Tz)/(C−Tz)]×100=50 (3)
(§6) which is the drug concentration resulting in a 50% reduction in the net protein increase (as measured by SRB staining) in control cells during the drug incubation.
(§7) The drug concentration resulting in total growth inhibition (TGI) is calculated from Ti=Tz (4)
(§8) The LC50 (concentration of drug resulting in a 50% reduction in the measured protein at the end of the drug treatment as compared to that at the beginning) indicating a net loss of cells following treatment is calculated from [(Ti−Tz)/Tz]×100=−50 (5)
(§9) Values are calculated for each of these three parameters if the level of activity is reached; however, if the effect is not reached or is exceeded, the value for that parameter is expressed as greater or less than the maximum or minimum concentration tested.

PC-3 = experiment: NCI-60 screen (SRB); format: cell-based, human; settings: PC-3 (Prostate)
Protocol: as §1, §2, §3, §4, §5, §6, §7, §8, §9

LOX IMVI = experiment: NCI-60 screen (SRB); format: cell-based; settings: LOX IMVI (Melanoma)
Protocol: as §1, §2, §3, §4, §5, §6, §7, §8, §9

SK-MEL-28 = experiment: NCI-60 screen (SRB); format: cell-based; settings: SK-MEL-28 (Melanoma)
Protocol: as §1, §2, §3, §4, §5, §6, §7, §8, §9

BT-549 = experiment: NCI-60 screen (SRB); format: cell-based; settings: BT-549 (Breast)
Protocol: as §1, §2, §3, §4, §5, §6, §7, §8, §9

HCC-2998 = experiment: NCI-60 screen (SRB); format: cell-based; settings: HCC-2998 (Colon)
Protocol: as §1, §2, §3, §4, §5, §6, §7, §8, §9

U251 = experiment: NCI-60 screen (SRB); format: cell-based; settings: U251 (CNS)
Protocol: as §1, §2, §3, §4, §5, §6, §7, §8, §9

[1] = test system: ALDH+ cancer stem cells (CSC) in MOLM-14 cell line; experiment: Aldefluor kit assay, ALDH+ compartment analysis; format: cell-based, human; settings: for Aldefluor™ positive CSCs (% of control) / Activity against CSCs in Aldefluor™ assay (proportion of CSCs): MOLM-14; for Aldefluor™ positive CSCs (% of control): 72 h; for Activity against CSCs in Aldefluor™ assay (proportion of CSCs): dose dependent, Cytarabine up to 3-fold its EC50; for Aldefluor positive CSCs (% of control): MOLM-14 cell line, 72 h incubation
Text: Analysis of the of aldehyde dehydrogenase (ALDH) compartment and high activity level of aldehyde dehydrogenase activity (ALDH+) was used to detect tumor initiating cells (cancer stem cells, CSC) population. The Aldefluor™ kit assay (StemCell Technologies) allowed to assess the activity of drugs on CSC cells like in aa MOLM-14 acute myeloid leukemia cell line population. The Aldefluor™ kit assay was used according to the procedure described by the manufacturer. Briefly, MOLM-14 cell line was cultured in RPMI-1640 Medium supplemented with 10% v/v Fetal Bovine Serum (FBS), 1% Penicillin-Streptomycin and maintained at 37° C. with 5% CO2. 5·10^5 cells were used in this assay. Each compound was added at different concentrations (see table 13 and 14), and cell cultures were incubated for 72 h. Vehicle (H2O) was used as a control, and all compounds were tested in a constant percentage of vehicle. Cells obtained from cell culture were incubated for 45 minutes at 37° C. with Aldefluor™ buffer assay containing the Bodipy™-aminoacetaldehyde (BAAA), a fluorescent ALDH aldehyde substrate. ALDH converts the fluorescent substrate BAAA to the Bodipy™-aminoacetic acid (BAA) which is retained in the cell. An active efflux inhibitor is present in the Adelfluor™ assay buffer in order to avoid the active efflux from the cell of the substrate product ALDH dependent converted BAA. The fluorescent signal is directly proportional to the ALDH activity in the cells and is measured by flow cytometry. A negative control is used to measure the background fluorescence level. For such purpose, 4-(N,N-diethylamino)-benzaldehyde (DEAB) was used as selective ALDH inhibitor. A viability cell count was performed using LIVE/DEAD® Fixable Far Red Dead Cell Stain Kit (Invitrogen). The experimental data are analyzed using a computer program, Graphpad Prism (GraphPad Software, Inc. La Jolla, Calif.) and EC50 values were determined as the dose of compound required to reduce absorbance values to 50% of the signal obtained for vehicle treated cell cultures.

[2] = Homo sapiens, read-out: LC50 (the source's name)

SMILES: CCN(CC)C1CCN(C(C)c2cc(-c3ccccc3)nc3ccccc23)CC1.Cl.Cl (stereo not drawn) [XIX-3, 2-phenyl-4-{1-[4-(N,N-diethylamino)piperidin-1-yl]-eth-1-yl}quinoline dihydrochloride]
- GI50 (OVCAR-3; Homo sapiens): 14 µM
- CC50 (OVCAR-3; [2]): 55 µM
- TGI (OVCAR-3): 28 µM
- Growth percent at 10 μM (OVCAR-3): + (cell growth 60 > % < 80)
- Growth percent at 10 μM (PC-3): + (cell growth 60 > % < 80)
- GI50 (LOX IMVI; Homo sapiens): 4 µM
- CC50 (LOX IMVI; [2]): 44 µM
- TGI (LOX IMVI): 15 µM
- Growth percent at 10 μM (LOX IMVI): ++ (cell growth 40 > % < 60)
- GI50 (SK-MEL-28; Homo sapiens): 2 µM
- CC50 (SK-MEL-28; [2]): 6 µM
- TGI (SK-MEL-28): 3 µM
- Growth percent at 10 μM (SK-MEL-28): ××× (cell growth −40 > % < −60)
- TGI (BT-549): 27 µM
- Growth percent at 10 μM (BT-549): + (cell growth 60 > % < 80)
- GI50 (BT-549; Homo sapiens): 13 µM
- CC50 (BT-549; [2]): 56 µM
- TGI (HCC-2998): 13 µM
- Growth percent at 10 μM (HCC-2998): ++ (cell growth 40 > % < 60)
- GI50 (HCC-2998; Homo sapiens): 4 µM
- CC50 (HCC-2998; [2]): 44 µM
- GI50 (U251; Homo sapiens, U-251): 6 µM
- CC50 (U251; Homo sapiens, U-251, read-out: LC50 (the source's name)): 49 µM
- TGI (U251): 20 µM
- Growth percent at 10 μM (U251): +++ (cell growth 20 > % < 40)
- Aldefluor™ positive CSCs (% of control) ([1]; 5 μM): 86 % of control
- Aldefluor™ positive CSCs (% of control) ([1]; 10 μM): 66 % of control
- Aldefluor™ positive CSCs (% of control) ([1]; 20 μM): 42 % of control
- Aldefluor™ positive CSCs (% of control) ([1]; 40 μM): 25 % of control
- Activity against CSCs in Aldefluor™ assay (proportion of CSCs) [1]: reduced the proportion of CSCs

SMILES: Cc1ccc(-c2cc(N3CCC(NC(C)(C)C)CC3)c3ccccc3n2)cc1.Cl.Cl [XIII-8, 2-(4-methyl-phenyl)-4-(4-N-tert-butylamino-piperidin-1-yl)quinoline dihydrochloride]
- Activity against CSCs in Aldefluor™ assay (proportion of CSCs) [1]: reduced the proportion of CSCs
- Aldefluor positive CSCs (% of control) ([1]; 5 μM): 84 % of control
- Aldefluor positive CSCs (% of control) ([1]; 10 μM): 83 % of control
- Aldefluor positive CSCs (% of control) ([1]; 20 μM): 58 % of control
- Aldefluor positive CSCs (% of control) ([1]; 40 μM): 23 % of control

SMILES: CC(C)(C)NC1CCN(c2cc(-c3ccc(Cl)cc3)nc3ccccc23)CC1.Cl.Cl [XII-4, 2-(4-chloro-phenyl)-4-(4-N-tert-butylamino-piperidin-1-yl)quinoline dihydrochloride]
- Growth percent at 10 μM (OVCAR-3): − (cell growth % > 80)
- Growth percent at 10 μM (PC-3): +++ (cell growth 20 > % < 40)
- Growth percent at 10 μM (LOX IMVI): ++++ (cell growth 0 > % < 20)
- Growth percent at 10 μM (SK-MEL-28): ×××× (cell growth −60 < % > −80)
- Growth percent at 10 μM (BT-549): − (cell growth % > 80)
- Growth percent at 10 μM (HCC-2998): ++++ (cell growth 0 > % < 20)
- Growth percent at 10 μM (U251): ++ (cell growth 40 > % < 60)

From patent publication US10179770B2, “Quinolines derivatives as novel anticancer agents” (GENOSCIENCE PHARMA, priority 2013, dated 2019)
